These results are taken from patent US11786597B2, “Ionic liquids for transdermal drug delivery” (priority 2013, dated 2023).

Series [1] in a line: Determination of lipophilicity (octanol/water distribution by UV absorbance). The conditions noted are these: for percent in octanol: after extraction with water. In kind it is physicochemical. The method, then:
A 250 mL volume of n-octanol was shaken with 100 mL of ddH2O and left overnight. […]
The absorption of the octanol layer and water layers were measured and compared with the absorbance of the stock solutions. Measurements were repeated three times and the distribution coefficients were reported as the average. The percent of IL in octanol was calculated as the absorbance of the octanol layer after extraction divided by the absorbance of IL in octanol before extraction. The water/octanol distribution coefficient was calculated as the logarithm of the percent of IL in octanol divided by the percent of IL in water.

Series [2] concerns Normal human bronchial epithelial (NHBE) cells. Kind of series: WST-1 proliferation assay, 24 h exposure to diluted ILs. The note with it: for IC50: NHBE cells. The method, then:
Normal human bronchial epithelial (NHBE) cells were purchased (Lonza, Walkersville, MD) and cultured using bronchial epithelial cell growth media (BEGM, Clonetics Bullet Kit, Lonza, Walkersville, MD) on 100 mm tissue culture treated Petri dishes (Santa Cruz Biotechnologies, Santa Cruz, CA) coated with 50 μg/mL type I rat tail collagen (BD Biosciences, Bedford, MA). Cells were stored in an incubator with a humidified atmosphere at 37° C. and 5% CO2. Cells were fed two times weekly and passaged via trypsinization. Experimentation was performed in triplicate on cells harvested from passages 3 to 7.
NHBE cells were plated in 96-well tissue culture plates at a concentration of 1.5×10^4 cells/well in a volume of 200 μL and allowed to acclimate overnight. On the day of experimentation, treatment plates were prepared using stock ionic liquid diluted in BEGM and then serially diluted 3-fold for a total of 7 concentrations. The 96-well plates containing cells were then aspirated and the treatments (150 μL/well) were carefully transferred from the prep plate to the cells. Cells were exposed to the ionic liquids for 24 hours. Two hours prior to the end of the exposure time, positive control cell wells were aspirated, and a solution of 1% Triton-100 (150 μL/well) was added.
To assess cellular proliferation, water-soluble tetrazolium (WST-1) reagent (Clontech, Mountain View, CA) was added directly to cells, at a 1:10 dilution of the remaining media volume (7.5 μL of WST-1 reagent was added per 75 μL remaining cell culture media). NHBE cells exposed to media only and 1% Triton in BEGM were included as controls. Ionic liquid controls at the highest concentrations tested were included in wells without cells to rule out ionic liquid/assay reagent interference.
A general note: Tetrazolium assays rely on reduction of a dye to a coloured formazan, in cell work by metabolically active cells.

Series [3] can be described thus: Viscosity (Viscolab 3000 viscometer). The format is physicochemical. The procedure: Viscosity was measured on 1 mL samples with a Viscolab 3000 viscometer (Cambridge Viscosity, Medford, MA). […] Low-temperature differential scanning calorimetry (DSC) was performed on a DSC882e instrument (Mettler-Toledo Inc., Columbus, Ohio) under N2 atmosphere over two complete scans of a temperature range of −60 to 120° C. with a ramp rate of 10° C. per minute and a sample size of 18-21 mg in an aluminum crucible.

The nature of a further series: Conductivity of neat IL. The format is physicochemical. The method, then:
(§1) Determinations of conductivity were made on an ION450 benchtop meter (Radiometer Analytical) with a 2-pole electrode designed for use in viscous liquids (Radiometer Analytical CDC241-9) and calibrated with KCl. Conductivity was measured three times per sample on stirred 3 mL volumes of neat IL at 25° C. Density was measured three times per IL using a 1 mL volumetric flask and an analytical balance.

Series [4] in a line: Density (volumetric flask and balance). The format is physicochemical. The method, then:
as §1

Series [5] in a line: Calculations of molarity and ionic strength. The conditions noted are these: neat IL, Table 5. In kind it is physicochemical.
A short description of series [6]: Solubility in water (physical characterization). The conditions noted are these: 25° C.
The test system of another series is porcine skin. Kind of series: Skin transport of 3H-Mannitol in Franz diffusion cell. In kind it is in vitro ADME. The method, then:
FIG. 1 is a schematic of the skin transport experiment set-up and analysis. Porcine skin was loaded into the Franz diffusion cell (FDC) with the stratum corneum (SC) facing up. Skin was incubated in contact with 3H-labeled drug dissolved in donor solution for 24 hrs, at 37° C., with stirring. After 24 hrs the donor solution was removed and skin thoroughly washed. The SC was separated from the epidermis by tape stripping. Ten tape strips were applied, each tape corresponding to 1 “layer” of SC. Ten tape strips were assumed to remove the entire SC. Epidermis was separated from dermis using a razor blade. Acceptor solution was collected, and drug transport into various tissue layers was quantified by scintillation counter.
3H-labeled Mannitol and Cefadroxil were obtained from American Radiolabeled Chemicals, Inc. and Moravek, respectively. FDCs were used to assess the transport enhancement of ionic liquids using a previously established protocol. Karande, et al., “Discovery of transdermal penetration enhancers by high-throughput screening”, Nat Biotechnol, 22(2): 192-7 (2004). Briefly, the acceptor chamber was filled with degassed PBS and a small stir bar added. Thawed porcine skin was clamped in place between the acceptor and donor chambers with the SC facing up. Care was taken to ensure no air bubbles resided in the acceptor chamber. Ionic liquids or PBS (control) were spiked with 3H-labeled drug (Mannitol and Cefadroxil) to a final concentration of 10 μCi/ml. 300 μL of donor solution was added to the donor chamber and incubated in contact with the SC for 24 hr, at 37° C., with stirring.
After 24 hr, the donor solution was removed, and the skin was thoroughly washed and dried.
SC was separated from epidermis by tape stripping. Ten tape strips were performed in an identical fashion, with each tape corresponding to 1 SC “layer”. Ten strips were assumed to remove the majority of the SC. Epidermis was separated from dermis with a razor blade, and the acceptor solution was collected from the acceptor chamber. Samples from each tissue layer and acceptor solution were dissolved in Soluble (Perkin Elmer, Waltham, MA) overnight and the concentration of radiolabeled solute was measured using a scintillation counter (Packard Tri-Carb 2100 TR, Meriden, CT).

Series [7] has as its system P. aeruginosa (Pseudomonas) biofilm. The note with it: neat IL.
Series [8] deals with S. enterica (Salmonella) biofilm. The conditions noted are these: neat IL.
Setting [9] is: read-out: IC50 at 24 h, WST, 24 h, lower limits where solubility precluded IC50.

Several values for one entry are separate records, joined by “and”; a condition that tells them apart may be missing. Identical values can stand only once. Like-named read-outs stand apart in the source and are kept apart here. Marks after values point to notes of the source that are not given here.

On to `CCCCCCCC/C=C\CCCCCCCC(=O)O.CCCCCCCC/C=C\CCCCCCCC(=O)[O-].C[N+](C)(C)CCO`, for which the “partitioning into octanol” value in series [1] is “partitioned well into octanol”. For the same compound, the “percent moving into the octanol layer” value in series [1] (after 1 min of agitation) was found to be 95%. Moreover, the percent in octanol in series [1] (Table 3) was 95 +/− 3%. In addition, the “toxicity to human primary cells” value in [2] was “very toxic”. The same compound displayed an IC50 in series [2] (text b165) of 34 µM. The viscosity in series [3] (25° C.) was 880 cP; in series [3] (Table 5), 162.3^b cP; in series [3] (text b171) it was 162 cP. Further, the results for the conductivity in the series “Conductivity of neat IL” (25° C.) and in the series “Conductivity of neat IL” (Table 5) were 0.087 mS/cm and 0.0871^b mS/cm, respectively. Moreover, the density in series [4] (25° C.), in series [4] (Table 5) and in [4] (text b173) was 0.98 g/mL each time. The ionic strength in series [5] was 1.47 M. In addition, the molarity in series [5] was 1.47 M.
For the compound `CCCC[N+]1(C)CCCC1.O=S(=O)([N-]S(=O)(=O)C(F)(F)F)C(F)(F)F` [LANL-1, 1-Butyl-1-methylpyrrolidinium (BMP)—bistriflimide (NTf2)], the “partitioning into octanol” value in [1] is “partitioned poorly into octanol”. The same compound displayed a percent in octanol in series [1] (Table 3) of 20% +/− 7%. In addition, in series [1] (starting concentration of 0.2 M in octanol), the “percentage in the water phase” value turned out to be 51%. Further, the “percentage not incorporated in octanol or water” value in [1] (starting concentration of 0.2 M in octanol, third phase) stood at 29%. Moreover, the “toxicity to human primary cells” value in series [2] was “low toxicity”. The concentration for half-maximal inhibition (IC50) in [2] (setting [9]) is above 2000 µM. Besides, the viscosity in series [3] (25° C.) was found to be 72.7 cP; in series [3] (Table 5) it was 72.72 cP. Besides, the conductivity in the series “Conductivity of neat IL” (25° C.) and in “Conductivity of neat IL” (Table 5) was 1.99 mS/cm each time. For the same compound, the density in [4] (25° C.) and in series [4] (Table 5) was 1.39 g/mL throughout. In series [5], the ionic strength is listed as 3.28 M. Further, in series [5], the molarity is given as 3.28 M.
Consider `NC(N)=O` [LANL-6, urea-choline], for which the half-inhibitory concentration (IC50) in series [2] (text b165) and in series [2] (setting [9]) was above 10000 µM each time.
Take `C[N+](C)(C)CCO.O=S(=O)([N-]S(=O)(=O)C(F)(F)F)C(F)(F)F` [LANL-12, choline-NTf2]: the percent in octanol in series [1] (Table 3) is 67 +/− 9%. For the same compound, the “log Po/w” value in [1] (octanol/water, Table 3) is reported as 0.31. Further, the viscosity in series [3] (25° C.) and in series [3] (Table 5) was 125 cP throughout. Besides, the figures for the conductivity in the series “Conductivity of neat IL” (25° C.) and in “Conductivity of neat IL” (Table 5) were 1.46 mS/cm and 1.460 mS/cm, respectively. For the same compound, the density is 1.5 g/mL and 1.53 g/mL in [4] (25° C.); 1.54 g/mL in series [4] (Table 5). In addition, the ionic strength in series [5] is on record as 4.40 M. In [5], the molarity is 4.40 M. The same compound returned a solubility in water in series [6] of 1700 mM.
With `O=S(=O)(NS(=O)(=O)C(F)(F)F)C(F)(F)F` [LANL-12, choline-NTf2], the IC50 in series [2] (setting [9]) was 1700 µM.
Turning to `CCCCCCCC/C=C\CCCCCCCC(=O)[O-].CCCCCCCCCCCCCC[P+](CCCCCC)(CCCCCC)CCCCCC` [LANL-19, [PC14H29(C6H13)3][oleate]], the “log Po/w” value in series [1] is listed as 1.14. Besides, the percent in octanol in series [1] (Table 3) is given as 93 +/− 2%. The viscosity in series [3] (25° C.) was 299 cP; in series [3] (Table 5) it was 300 cP. Further, the conductivity in “Conductivity of neat IL” (25° C.) stood at 0.016 mS/cm; in the series “Conductivity of neat IL” (Table 5), 0.0162 mS/cm. Moreover, the density in [4] (25° C.) and in series [4] (Table 5) was 0.882 g/mL in each case. Further, in [5], the ionic strength was 1.24 M. The molarity in series [5] is 1.15 M. In addition, the “loss/partitioning of solute to the acceptor solution” value in the series with porcine skin (3H-Mannitol) is “no additional loss of solute to the acceptor solution”. Moreover, in the series on porcine skin (3H-Mannitol, relative to PBS control), the “transport enhancement into/through all layers of the skin” value is 5-10 fold. In addition, in the series on porcine skin (materials in lower right portion of Walden plot), the “skin transport properties” value was “best skin transport properties”.
Take `CCCCCC(=O)[O-].CCCCCCCCCCCCCC[P+](CCCCCC)(CCCCCC)CCCCCC` [LANL-20, [PC14H29(C6H13)3][hexanoate]]: the percent in octanol in [1] (Table 3) is recorded as 65 +/− 14%. Besides, the “log Po/w” value in series [1] (octanol/water, Table 3) was determined as 0.26. Further, the viscosity in series [3] (25° C.) and in series [3] (Table 5) was 154 cP in each case. In addition, the conductivity in the series “Conductivity of neat IL” (25° C.) and in “Conductivity of neat IL” (Table 5) was 0.488 mS/cm each time. Moreover, the density in series [4] (25° C.) and in [4] (Table 5) was 0.912 g/mL each time. The ionic strength in series [5] is 1.63 M. Moreover, the molarity in series [5] is recorded as 1.63 M. In series [6], the “solubility in water” value is listed as “trace”.
Turning to `CC(C)=CCC/C(C)=C/C(=O)[O-].CCCCCCCCCCCCCC[P+](CCCCCC)(CCCCCC)CCCCCC` [LANL-22, [PC14H29(C6H13)3][geranate]], the “log Po/w” value in series [1] is 0.86. Moreover, the percent in octanol in series [1] (Table 3) is listed as 88 +/− 6%. For the same compound, the viscosity in series [3] (25° C.) is 122 cP; in series [3] (Table 5) it was 122.3 cP. Further, the conductivity in “Conductivity of neat IL” (25° C.) and in “Conductivity of neat IL” (Table 5) was 0.156 mS/cm throughout. Further, the density in series [4] (25° C.) and in series [4] (Table 5) was 0.931 g/mL throughout. Moreover, the ionic strength in [5] is 1.43 M. Also, the molarity in series [5] is listed as 1.43 M.
For the compound choline malonate [LANL-5], the figures for the viscosity in [3] (25° C.) and in series [3] (Table 5) were 920 cP and 920.1 cP, respectively. For the same compound, the conductivity in the series “Conductivity of neat IL” (25° C.) and in “Conductivity of neat IL” (Table 5) was 0.429 mS/cm throughout. Also, the results for the density in series [4] (25° C.), in series [4] (Table 5) and in series [4] (text b173) were 1.266 g/mL, 1.27 g/mL and 1.27 g/mL, respectively. Further, in [5], the ionic strength is 5.20 M. The molarity in series [5] was 5.20 M. The “anti-biofilm efficacy” value in series [7] and in series [8] was “effective” in each case.

What is called IC50 is the concentration needed to halve the response being measured. As usually defined, the viscosity is the resistance of a fluid to flow. Lower therefore signals a thin fluid. Broadly, the density is mass per unit of volume.
